Columns and labels:
hKv1.5 = hKv1.5 (Homo sapiens, UniProt P22460); test: Kv1.5 Autopatch electrophysiology (whole cell patch-clamp); type: cell-based; details: compound at 1 μM; room temperature (22-24° C.); total charge during step to 0 mV; read-out: hKv1.5 % inh.
Procedure: Kv1.5 Autopatch Electrophysiology Method
The external bathing solution contained (in mM): 150 NaCl, 10 KCl, […], 3 MgCl2, 1 CaCl2, 10 HEPES, pH 7.4. Patch pipettes were filled with an electrode solution of composition (in mM): 160 KCl, 0.5 MgCl2, 10 HEPES, 1 EGTA, pH 7.4 with KOH.
Compounds were dissolved in DMSO (100%) and made up in the external bather at a concentration of 1 μM. All experiments were conducted at room temperature (22-24° C.).
A cell suspension (10 ml), with a density of 100,000 cells/ml, was aliquoted into a 15 ml centrifuge tube and transferred to an incubator (37° C., 5% CO2) for approximately one hour before use. Following 60 min incubation, a tube was taken and centrifuged at 1000 rpm for 4 mins at room temperature. 9.5 ml supernatant was thence discarded, leaving a cell pellet at the bottom of the tube. The pellet was then resuspended using 100 μl of cold (4° C.), filtered (0.22 μm), 0.2% BSA/bather solution (0.02 g BSA/10 ml bather). The bottom of the tube was manually agitated gently until the solution became cloudy with cells. The 100 μl cell resuspension solution was then stored on the bench at 4° C. (using a Peltier-based temperature control device) until used.
A length of capillary glass (1B150F-4, WPI) was dipped into the cell suspension solution, such that ˜3 cm column of fluid was taken up by capillary action. A Ag/AgCl wire was dropped into the non-dipped end of the capillary also. The outside of the solution-filled end of the capillary was then dried and the capillary was loaded into the AutoPatch™.
Borosilicate glass patch pipettes (from 1.5 mm OD, thin-walled filamented, GC150-TF capillary glass, Harvard) were pulled using a DMZ pipette puller (Zeitz Instruments), and were back-filled using the internal pipette solution, being careful that no bubbles remain at the tip or in the body of the pipette. Patch pipettes typically had resistances of 2.3-3.5 MΩ. Once filled, the pipette tip and a proportion of the shaft (˜15 mm) were dipped into Sigmacote (Sigma). The recording pipette was then loaded into the AutoPatch™ Automated patch-clamping was initiated by the operator, but thereafter AutoPatch.exe continued the experiment providing that pre-set conditions and criteria were satisfied.
Whole cell patch-clamp recordings were made using the AutoPatch™ rig, which incorporated an EPC9 amplifier (HEKA, Germany) under control of Pulse software (v8.54, HEKA, Germany), a motion controller with 2 translators (Newport, UK), valve controller (VF1) and a c-level suction device all at room temperature (22-24° C.). This equipment was completely under the control of AutoPatch.exe and operator intervention was only made when there was a requirement to refill the drug reservoirs or to prevent the loss of a cell due to a technical error. Cells with an Rseries greater than 18 MΩ were discounted from the experiment.
Qualification stages prior to perfusion and drug application ensured that the observed current met the criteria for the experiment. Only those cells with an IK>500 pA were used for experiments. Cells were continuously perfused with external solution at a flow rate of 1.8-2 ml/minute. […] Online analysis of the hKv1.5 current during the application of compounds was performed by the AutoPatch™ software. Voltage-step protocols and analysis of data was performed as described for conventional electrophysiology.
Electrophysiology voltage-step protocols and analysis of data was performed as follows. Data was sampled at 5 kHz, and filtered with a −3 dB bandwidth of 2.5 kHz. Cells were held at a voltage of −80 mV. Currents were evoked to a voltage step for 1000 ms in duration at 0 mV every 5 s. Currents were analysed using Pulsefit software (v8.54, HEKA, Germany), with the total charge measured during the whole of the voltage step. All other plots were produced using Igor Pro (WaveMetrics).

human Kv1.3 = target: T1, human Kv1.3 (Homo sapiens, UniProt P22001); test: Kv1.3 Autopatch electrophysiology (whole cell patch-clamp, inhibition of charge movement); type: cell-based; details: compound at 1 μM; cells stably transfected with human Kv1.3; room temperature; total charge during step to +30 mV relative to control; read-out: hKv1.3 % inh.
T1 construct: expressed in transfected cells; host or cells: stably transfected cells grown in medium for CHO cells
Method in brief: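 Whole-cell AutoPatch recordings were made at room temperature from cells held at −80 mV, with 500 ms steps to +30 mV every 15 s. The bath contained 10 mM KCl, pH 7.4, and the pipette K-gluconate/EGTA, pH 7.2.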

T1 sequence (P22001 whole entry): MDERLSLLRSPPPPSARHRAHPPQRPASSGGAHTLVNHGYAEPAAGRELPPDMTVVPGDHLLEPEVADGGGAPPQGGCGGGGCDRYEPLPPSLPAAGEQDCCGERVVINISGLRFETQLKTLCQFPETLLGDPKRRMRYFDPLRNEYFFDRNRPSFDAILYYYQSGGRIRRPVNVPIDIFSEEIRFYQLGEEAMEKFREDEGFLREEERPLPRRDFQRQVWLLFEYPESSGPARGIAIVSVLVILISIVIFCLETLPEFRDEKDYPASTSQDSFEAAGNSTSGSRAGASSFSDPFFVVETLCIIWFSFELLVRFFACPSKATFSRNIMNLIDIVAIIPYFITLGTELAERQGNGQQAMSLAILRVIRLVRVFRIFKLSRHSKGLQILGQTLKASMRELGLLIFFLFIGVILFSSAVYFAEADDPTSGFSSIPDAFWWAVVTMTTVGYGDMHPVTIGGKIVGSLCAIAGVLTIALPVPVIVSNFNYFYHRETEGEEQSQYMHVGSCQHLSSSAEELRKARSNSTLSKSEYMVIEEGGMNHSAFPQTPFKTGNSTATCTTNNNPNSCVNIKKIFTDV
hKv1.5, sequence (P22460 whole entry): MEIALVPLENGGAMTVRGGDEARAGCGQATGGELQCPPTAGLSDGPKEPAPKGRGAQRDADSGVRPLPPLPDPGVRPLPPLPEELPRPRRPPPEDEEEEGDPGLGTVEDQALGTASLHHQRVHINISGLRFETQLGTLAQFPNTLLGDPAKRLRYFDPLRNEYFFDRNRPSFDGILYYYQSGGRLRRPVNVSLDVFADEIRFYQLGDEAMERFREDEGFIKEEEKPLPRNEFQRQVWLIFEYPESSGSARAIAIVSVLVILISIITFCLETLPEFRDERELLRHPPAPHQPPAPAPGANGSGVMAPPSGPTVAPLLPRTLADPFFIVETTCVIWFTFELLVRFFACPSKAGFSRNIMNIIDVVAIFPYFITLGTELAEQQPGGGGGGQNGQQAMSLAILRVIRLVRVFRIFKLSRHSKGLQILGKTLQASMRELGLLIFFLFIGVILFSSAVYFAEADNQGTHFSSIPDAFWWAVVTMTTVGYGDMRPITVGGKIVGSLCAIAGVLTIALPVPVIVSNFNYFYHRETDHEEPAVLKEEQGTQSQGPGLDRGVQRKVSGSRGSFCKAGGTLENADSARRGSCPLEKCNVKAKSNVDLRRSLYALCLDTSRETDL

Row | Structure (SMILES) | inhibition at 1 µM (hKv1.5) [%] | inhibition at 1 µM (human Kv1.3) [%]
1 | COc1cc(N(Cc2ccccc2)S(=O)(=O)c2ccccc2)ccc1C(=O)N1CCN(c2ccccc2)CC1 [Example 54, N-Benzyl-N-[3-methoxy-4-(4-phenyl-piperazine-1-carbonyl)-phenyl]-benzenesulfonamide] | 89.6 | 92
2 | Cn1cnc(S(=O)(=O)N(Cc2ccccc2)c2ccc(CN3CCN(c4ccccc4)CC3)cc2)c1 [Example 8, 1-Methyl-1H-imidazole-4-sulfonic acid benzyl-[4-(4-phenyl-piperazin-1-ylmethyl)-phenyl]-amide] | 56.7 | 90
3 | O=C(c1ccc(N(Cc2ccccc2)S(=O)(=O)c2ccccc2)cc1)N1CCc2ccccc2C1 [Example 55, N-Benzyl-N-[4-(3,4-dihydro-1H-isoquinoline-2-carbonyl)-phenyl]-benzenesulfonamide] | 50.1 | 81
4 | Cn1nccc1S(=O)(=O)N(Cc1ccccc1)c1ccc(C(=O)N2CCOC(c3ccccc3)C2)cc1 (stereo not shown) [Example 85, 2-Methyl-2H-pyrazole-3-sulfonic acid benzyl-[4-(2-phenyl-morpholine-4-carbonyl)-phenyl]-amide] | 47 | 94
5 | COc1cccc(CN(c2ccc(C(=O)N3CCN(c4ccccc4)CC3)cc2)S(=O)(=O)c2ccccc2)c1OC [Example 51, N-(2,3-Dimethoxy-benzyl)-N-[4-(4-phenyl-piperazine-1-carbonyl)-phenyl]-benzenesulfonamide] | 57.5 | 42
6 | Cn1cnc(S(=O)(=O)N(Cc2ccc(Cl)cc2)c2ccc(C(=O)N3CCCC(c4ccccc4)C3)cc2)c1 (stereo not shown) [Example 61, 1-Methyl-1H-imidazole-4-sulfonic acid (4-chloro-benzyl)-[4-(3-phenyl-piperidine-1-carbonyl)-phenyl]-amide] | 67.5 | 89

The remaining lines, values ahead:

Row | inhibition at 1 µM (hKv1.5) [%] | inhibition at 1 µM (human Kv1.3) [%] | Structure (SMILES)
7 | 73.6 | 92 | O=C(c1ccc(N(Cc2cccc(Cl)c2)S(=O)(=O)c2ccccc2)cc1)N1CCN(c2ccccc2)CC1 [Example 11, N-(3-Chloro-benzyl)-N-[4-(4-phenyl-piperazine-1-carbonyl)-phenyl]-benzenesulfonamide]
8 | 85.6 | 92 | O=C(c1ccc(N(Cc2ccccc2)S(=O)(=O)c2cccc(Cl)c2)cc1)N1CCN(c2ccccc2)CC1 [Example 30, N-Benzyl-3-chloro-N-[4-(4-phenyl-piperazine-1-carbonyl)-phenyl]-benzenesulfonamide]
9 | 88.8 | 82 | O=C(c1ccc(N(Cc2ccccc2)S(=O)(=O)c2ccccc2F)cc1)N1CCN(c2ccccc2)CC1 [Example 20, N-Benzyl-2-fluoro-N-[4-(4-phenyl-piperazine-1-carbonyl)-phenyl]-benzenesulfonamide]
10 | 93.6 | 67 | Cc1cc(N(Cc2ccccc2)S(=O)(=O)c2ccccc2)ccc1C(=O)N1CCN(c2ccccc2)CC1 [Example 52, N-Benzyl-N-[3-methyl-4-(4-phenyl-piperazine-1-carbonyl)-phenyl]-benzenesulfonamide]
11 | 75.3 | 70 | O=C(c1ccc(N(Cc2ccccc2)S(=O)(=O)c2cc(Cl)cc(Cl)c2)cc1)N1CCN(c2ccccc2)CC1 [Example 29, N-Benzyl-3,5-dichloro-N-[4-(4-phenyl-piperazine-1-carbonyl)-phenyl]-benzenesulfonamide]

Source: patent US8258138B2, “Potassium channel blockers” (Xention Limited, priority 2008, dated 2012)
